Test results as given in US8981111B2 (priority 2008, dated 2015).

Experiment: log P (HPLC/MS data of the preparation examples)

For “pentyl{2-[({[(1-methyl-1H-imidazol-5-yl)(phenyl)methylene]amino}oxy)-methyl]pyrimidin-4-yl}carbamate [Example 139]”, the “log P(HCOOH)” value (HCOOH) was 2.66 and the log p (method [b]: LC-MS at pH 2.7, 0.1% formic acid in water / acetonitrile, linear gradient 10% to 95% acetonitrile) was 3.19^[b].
